Paper PMC9607246 (Pharmaceutics, 2022)
In brackets after ≈: the same amount, converted by molar mass. Like-named read-outs stand apart in the source and are kept apart here.

Legend:
[1] = system: Pathogenic micro-organism (S. aureus, S. epidermidis, S. hominis, E. fecalis, S. sacrophyticus, S. lugdunensis); format: cell-based; conditions: e-test; median (IQR) of pathogens of the 46 patients (36/46 identified); mg/L
Procedure: Demographic (age, body weight and height), treatment (dose and co-administered medications) and clinical data (microbiological data, analytical and disease covariates) were collected at patient enrolment. Serum creatinine and serum albumin were measured on the day (if not available, the nearest day) of measurement of the drug concentration.

Staphylococcus aureus = conditions: total AUC, MIC equal to 1 mg/L, cited from earlier work
[2] = system: plasma proteins (albumin and α-glycoprotein); conditions: cited from earlier work
[3] = Population pharmacokinetic model of daptomycin in patients with normal and impaired renal function (NONMEM)
[4] = system: creatine phosphokinase elevation; conditions: in vivo; cited from earlier work
Procedure: The probability of Cmin ≥24.3 mg/L at 24 h was calculated for each scenario.

[5] = excretion primarily by the kidneys; cited from earlier work
[6] = non-parametric bootstrap n = 1000, median
[7] = population estimate, final model, unbound daptomycin, 46 patients

## CCCCCCCCCC(=O)N[C@@H](Cc1c[nH]c2ccccc12)C(=O)N[C@H](CC(N)=O)C(=O)N[C@@H](CC(=O)O)C(=O)N[C@@H]1C(=O)NCC(=O)N[C@@H](CCCN)C(=O)N[C@@H](CC(=O)O)C(=O)N[C@H](C)C(=O)N[C@@H](CC(=O)O)C(=O)NCC(=O)N[C@H](CO)C(=O)N[C@@H]([C@H](C)CC(=O)O)C(=O)N[C@@H](CC(=O)c2ccccc2N)C(=O)O[C@@H]1C [daptomycin]
[1]
  MIC micro-organism: 0.5 (0.25, 0.5)
Staphylococcus aureus; ref 19
  AUC with bactericidal effect: 761 mg·h/L
  AUC with bacteriostatic effect: 465 mg·h/L
Staphylococcus aureus; ref 24, 51, 52
  AUC with bactericidal effect: 666 mg·h/L
[2]
  free fraction: around 10%
  reversibly bound to albumin and α-glycoprotein: 90%
[3]; [6]
  CL, bootstrap median: 7.01 L/h
  Q, bootstrap median: 1.93 L/h
  V1, bootstrap median: 0.97 L
[3]; [7]
  Q (intercompartmental clearance): 1.96 L/h
  V1 (apparent volume of distribution of the unbound central compartment): 0.95 L
[4]
  trough level (Cmin) associated with a 50% probability of creatine phosphokinase elevation: ≥ 24.3 µg/mL
[5]
  eliminated in urine: 54–78%
Human plasma proteins; in vivo
  Bmax (maximal binding capacity): 160 mg/L
  Bmax, bootstrap median: 157 mg/L
Human plasma proteins; [6]
  KD, bootstrap median: 3.61 mg/L (≈ 2.23 µM)
Human plasma proteins; population estimate, single-site non-linear binding model, estimated from total concentrations, no free concentrations measured
  KD (equilibrium dissociation constant): 3.56 mg/L (≈ 2.2 µM)
